Measured values published in US10376456B2, “Concentrated and self-preserving compositions of mild surfactants for transparent and skin-pH personal care formulations” (GALAXY SURFACTANTS LTD., priority 2015, dated 2019).

Tests used:
[1] = Critical micelle concentration (CMC); format: physicochemical
Source text: It is well established that in case of surfactants, lower the CMC value, milder the surfactants. Ionic surfactant molecules interact with proteins through charge-charge interaction since the charge density on the head group is high. Whenever aggregates are formed the charge density of micelle is much lesser as the charge gets spread over the large micelle. […] It can be seen from Table 2 that CMC of anionic sodium lauryl sulphate (SLS) is the highest and zwitterionic (electrically neutral) cocoamidopropyl (CAPB) is the lowest.

subject's volar arm = experiment: Corneometry analysis of skin hydration after repeated application of body-wash; format: in vivo; conditions: body-wash 12% active matter, 2% PEG-150 distearate, twice a day for fifteen days, 50% RH, 20° C.
Source text: Removal of Natural Moisturizing Factor (NMF) from stratum corneum during cleansing leads to a lower capacitance reading since there is less secondary bound water in the skin's corneocytes. […] The corneometer findings are consistent with the TEWL findings.

Compound	CMC [1] [mM/liter]	Skin moisture level (corneometry) (subject's volar arm)
CCCCCCCCCCCCOS(=O)(=O)[O-].[Na+] [SLS, sodium lauryl sulfate]	5.90	
Cocoamidopropyl betaine [CAPB]	0.06	
Sodium cocoyl isethionate	0.14	
Sodium lauryl ether sulfate [sodium lauryl ether sulphate (2 EO)]		dry the stratum corneum
sodium cocoyl glycinate	1.01	
